The target in the first assay is T1, CFTR (F508del/MF-HBE cells) (Homo sapiens, UniProt P13569, DEL508-508).
T1 construct: human bronchial epithelial (HBE) cells derived from CF subjects heterozygous for F508del and a minimal function CFTR mutation (F508del/MF-HBE); endogenous in cells; host or cells: Primary human bronchial epithelial cells from CF subjects (F508del/MF genotype), differentiated at an air-liquid interface
T1 sequence (P13569 with tags, fused parts or gaps DEL508-508): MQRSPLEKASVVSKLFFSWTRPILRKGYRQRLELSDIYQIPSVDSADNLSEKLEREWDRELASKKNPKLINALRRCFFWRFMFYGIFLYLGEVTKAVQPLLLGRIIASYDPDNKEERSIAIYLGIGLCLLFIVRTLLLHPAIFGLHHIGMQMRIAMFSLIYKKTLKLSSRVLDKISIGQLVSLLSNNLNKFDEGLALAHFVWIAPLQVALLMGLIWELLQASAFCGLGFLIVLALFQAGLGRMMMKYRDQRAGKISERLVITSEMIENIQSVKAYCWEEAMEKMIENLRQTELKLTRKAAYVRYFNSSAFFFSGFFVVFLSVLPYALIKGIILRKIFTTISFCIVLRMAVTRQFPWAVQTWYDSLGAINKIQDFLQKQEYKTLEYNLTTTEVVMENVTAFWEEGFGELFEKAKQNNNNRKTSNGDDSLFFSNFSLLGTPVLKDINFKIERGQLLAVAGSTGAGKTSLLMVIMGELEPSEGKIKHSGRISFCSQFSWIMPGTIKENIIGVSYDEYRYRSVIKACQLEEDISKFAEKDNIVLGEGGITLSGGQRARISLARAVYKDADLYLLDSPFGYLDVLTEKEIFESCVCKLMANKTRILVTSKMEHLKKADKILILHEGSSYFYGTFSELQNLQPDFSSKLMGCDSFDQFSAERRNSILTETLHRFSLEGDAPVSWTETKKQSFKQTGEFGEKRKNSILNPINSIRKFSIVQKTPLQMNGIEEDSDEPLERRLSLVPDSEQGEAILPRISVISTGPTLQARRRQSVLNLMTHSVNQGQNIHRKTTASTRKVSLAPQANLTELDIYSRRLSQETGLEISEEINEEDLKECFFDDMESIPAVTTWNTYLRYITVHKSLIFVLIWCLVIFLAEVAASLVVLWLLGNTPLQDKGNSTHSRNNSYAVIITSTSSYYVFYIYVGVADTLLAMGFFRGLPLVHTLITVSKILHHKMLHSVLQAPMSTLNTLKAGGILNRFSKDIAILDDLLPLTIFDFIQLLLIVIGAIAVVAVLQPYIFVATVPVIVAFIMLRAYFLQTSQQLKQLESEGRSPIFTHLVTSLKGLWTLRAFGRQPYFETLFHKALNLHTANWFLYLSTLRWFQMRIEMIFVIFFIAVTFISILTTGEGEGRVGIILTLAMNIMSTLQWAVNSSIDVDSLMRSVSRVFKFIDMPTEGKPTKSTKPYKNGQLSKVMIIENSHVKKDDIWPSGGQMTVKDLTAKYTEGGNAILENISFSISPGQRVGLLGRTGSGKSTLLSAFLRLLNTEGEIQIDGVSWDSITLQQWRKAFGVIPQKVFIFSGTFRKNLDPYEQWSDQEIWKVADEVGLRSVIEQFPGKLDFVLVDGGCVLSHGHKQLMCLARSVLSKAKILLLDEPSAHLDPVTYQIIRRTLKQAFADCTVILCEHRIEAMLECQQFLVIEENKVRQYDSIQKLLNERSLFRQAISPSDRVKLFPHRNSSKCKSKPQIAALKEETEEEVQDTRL
In words: Ussing chamber assay of CFTR-mediated short-circuit currents, Assay D (single concentration of 1 μM). The format is cell-based. The settings on record: with 44 nM potentiator and 18 μM Tezacaftor, 18-24 hours, 20% human serum. Put shortly: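 F508del/MF-HBE cells grown at air-liquid interface were incubated 18-24 h at 37 °C in 20% human serum with correctors plus 18 μM tezacaftor and a fixed partner compound (33 nM for concentration series, 44 nM at 1 μM). ISC was read at 0 mV after 20 μM forskolin, minus the post-inhibitor current.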
With `Cc1cccc(C)c1-c1cc2nc(n1)NS(=O)(=O)c1cccc(c1)C(=O)N(Cc1cnc3cc(C(C)C)n(C)c3n1)[C@H](COC1CCCC1)CO2` [Compound I-121, (11R)-11-(Cyclopentoxymethyl)-6-(2,6-dimethylphenyl)-12-[(6-isopropyl-5-methyl-pyrrolo[2,3-b]pyrazin-3-yl)methyl]-2,2-dioxo-9-oxa-2λ^6-thia-3,5,12,19-tetrazatricyclo[12.3.1.14,8]nonadeca-1(18),4(19),5,7,14,16-hexaen-13-one], the “D activity at 1 μM (%)” value is listed as “+++ (+++ is >60%)”.

For the compound `Cc1cccc(C)c1-c1cc2nc(n1)NS(=O)(=O)c1cccc(c1)C(=O)N(Cc1cnc3oc(C(C)(C)C)cc3n1)[C@H](CC1CC1)CO2` [Compound I-219], the “D activity at 1 μM (%)” value is recorded as “+++ (+++ is >60%)”.

Regarding `Cc1cccc(C)c1-c1cc2nc(n1)NS(=O)(=O)c1cccc(c1)C(=O)N(Cc1cnc3oc(C(C)C)cc3n1)C(CC(C)(C)C1CC1)CO2` (stereo not shown) [Compound I-105], the “D activity at 1 μM (%)” value was “+++ (+++ is >60%)”.

Regarding `Cc1cccc(CC(C)C)c1-c1nc2nc(c1C)OC[C@@H](CC(C)(C)C)N(Cc1cnc3oc(C(C)(C)C)cc3n1)C(=O)c1cccc(c1)S(=O)(=O)N2` (atropisomer, axis not shown) [Compound I-238], the “D activity at 1 μM (%)” value was “+++ (+++ is >60%)”.

As for `Cc1cccc(C)c1-c1nc2nc(c1C)OC[C@@H](CCC(C)(C)C)N(Cc1cnc3cc(C4CC4)n(C)c3n1)C(=O)c1cccc(c1)S(=O)(=O)N2` [Compound I-183], the “D activity at 1 μM (%)” value is listed as “+++ (+++ is >60%)”.

Take `Cc1cccc(C)c1-c1cc2nc(n1)NS(=O)(=O)c1cccc(c1)C(=O)N(Cc1cnc3cc(C(C)C)n(C)c3n1)[C@H](C[C@@H]1CCCCO1)CO2` [Compound I-15, (11R)-6-(2,6-dimethylphenyl)-12-[(6-isopropyl-5-methyl-pyrrolo[2,3-b]pyrazin-3-yl)methyl]-2,2-dioxo-11-[[(2S)-tetrahydropyran-2-yl]methyl]-9-oxa-2λ^6-thia-3,5,12,19-tetrazatricyclo[12.3.1.14,8]nonadeca-1(18),4(19),5,7,14,16-hexaen-13-one]: the “D activity at 1 μM (%)” value was “+++ (+++ is >60%)”.

`Cc1cccc(C)c1-c1nc2nc(c1C)OC[C@@H](CC(C)(C)C)N(Cc1nc3cc(C4(C)CC4)oc3cc1F)C(=O)c1cccc(c1)S(=O)(=O)N2` [Compound I-236]: the “D activity at 1 μM (%)” value was “+++ (+++ is >60%)”.

Regarding `Cc1cccc(C)c1-c1cc2nc(n1)NS(=O)(=O)c1cccc(c1)C(=O)N(Cc1cnc3oc(C(C)C)c(N)c3n1)[C@H](CC1(C)CC1)CO2` [Compound I-237, (11R)-12-[(7-Amino-6-isopropyl-furo[2,3-b]pyrazin-2-yl)methyl]-6-(2,6-dimethylphenyl)-11-[(1-methylcyclopropyl)methyl]-2,2-dioxo-9-oxa-2λ^6-thia-3,5,12,19-tetrazatricyclo[12.3.1.14,8]nonadeca-1(18),4(19),5,7,14,16-hexaen-13-one], the “D activity at 1 μM (%)” value is “+++ (+++ is >60%)”.

`Cc1cccc(C)c1-c1cc2nc(n1)NS(=O)(=O)c1cccc(c1)C(=O)N(Cc1cnc3oc(C)c(C4CC4)c3n1)[C@H](CC(C)(C)C)CO2` [Compound I-28]: the “D activity at 1 μM (%)” value is “+++ (+++ is >60%)”.

`Cc1cccc(C)c1-c1cc2nc(n1)NS(=O)(=O)c1cccc(c1)C(=O)N(Cc1cnc3nc(C(C)C)n(C)c3n1)[C@H](CC(C)(C)C)CO2` [Compound I-73]: the “D activity at 1 μM (%)” value was “+++ (+++ is >60%)”.

As for `Cc1cccc(C(C)C)c1-c1nc2nc(c1C)OC[C@@H](CC(C)(C)C)N(Cc1cnc3oc(C(C)C)cc3n1)C(=O)c1cccc(c1)S(=O)(=O)N2` (atropisomer, axis not shown) [Compound I-136], the “D activity at 1 μM (%)” value is reported as “+++ (+++ is >60%)”.

For the compound `Cc1cccc(C)c1-c1nc2nc(c1C)OC[C@@H](CCC(C)(C)C)N(Cc1cnc3oc(C4CC4)cc3n1)C(=O)c1cccc(c1)S(=O)(=O)N2` [Compound I-184], the “D activity at 1 μM (%)” value was “+++ (+++ is >60%)”.

`Cc1cccc(C)c1-c1cc2nc(n1)NS(=O)(=O)c1cccc(c1)C(=O)N(Cc1cnc3oc(C4CC4)cc3n1)[C@@H](C1CC(C)(C)C1)CO2` [Compound I-163]: the “D activity at 1 μM (%)” value was “+++ (+++ is >60%)”.

Turning to `Cc1cccc(C)c1-c1cc2nc(n1)NS(=O)(=O)c1cccc(c1)C(=O)N(Cc1nn(C(C)C)c3ccccc13)[C@H](CC(C)(C)C)CO2` [III-17], the “D activity at 1 μM (%)” value was “+++ (+++ is >60%)”.

Take `Cc1cccc(C)c1-c1nc2nc(c1C)OC[C@@H](CC1(C)CC1)N(Cc1cnc3oc(C(C)(C)C)cc3n1)C(=O)c1cccc(c1)S(=O)(=O)N2` [Compound I-221]: the “D activity at 1 μM (%)” value is “+++ (+++ is >60%)”.

Consider `Cc1cccc(C)c1-c1nc2nc(c1C)OC[C@@H](C[C@H]1CCCCO1)N(Cc1cnc3oc(C4CC4)cc3n1)C(=O)c1cccc(c1)S(=O)(=O)N2` [Compound I-192], for which the “D activity at 1 μM (%)” value is “+++ (+++ is >60%)”.

Turning to `Cc1cccc(C)c1-c1cc2nc(n1)NS(=O)(=O)c1cccc(c1)C(=O)N(Cc1ccc3oc(C4(C)CC4)cc3n1)[C@H](CC1(C)CC1)CO2` [Compound I-226], the “D activity at 1 μM (%)” value was “+++ (+++ is >60%)”.

For the compound `Cc1cccc(C)c1-c1cc2nc(n1)NS(=O)(=O)c1cccc(c1)C(=O)N(Cc1cnc3cc(C(C)C)n(C)c3n1)[C@H](CC1CCOCC1)CO2` [Compound I-29], the “D activity at 1 μM (%)” value is listed as “++ (++ is 30-60%)”.

Take `Cc1cccc(C)c1-c1cc2nc(n1)NS(=O)(=O)c1cccc(c1)C(=O)N(Cc1cnc3oc(C(C)C)cc3n1)[C@H](C[C@@H]1CCCCO1)CO2` [Compound I-8]: the “D activity at 1 μM (%)” value is “+++ (+++ is >60%)”.

Regarding `Cc1cccc(C)c1-c1cc2nc(n1)NS(=O)(=O)c1cccc(c1)C(=O)N(Cc1cnc3cn(C(C)C)nc3n1)[C@H](CC(C)(C)C)CO2` [Compound I-111], the “D activity at 1 μM (%)” value is on record as “+++ (+++ is >60%)”.

Regarding `Cc1cccc(C)c1-c1cc2nc(n1)NS(=O)(=O)c1cccc(c1)C(=O)N(Cc1cnc3oc(C(C)C)cc3n1)[C@H](CC1(C)CCC1)CO2` [Compound I-55], the “D activity at 1 μM (%)” value is “+++ (+++ is >60%)”.

`Cc1cccc(C)c1-c1cc2nc(n1)NS(=O)(=O)c1cccc(c1)C(=O)N(Cc1cnc3nn(C(C)C)cc3n1)[C@H](CC(C)(C)C)CO2` [Compound I-169, (11R)-6-(2,6-Dimethylphenyl)-11-(2,2-dimethylpropyl)-12-[(2-isopropylpyrazolo[3,4-b]pyrazin-5-yl)methyl]-2,2-dioxo-9-oxa-2λ^6-thia-3,5,12,19-tetrazatricyclo[12.3.1.14,8]nonadeca-1(18),4(19),5,7,14,16-hexaen-13-one]: the “D activity at 1 μM (%)” value is recorded as “+++ (+++ is >60%)”.

In the case of `Cc1cccc(CC2CCCCC2)c1-c1nc2nc(c1C)OC[C@@H](CC(C)(C)C)N(Cc1cnc3oc(C4CC4)cc3n1)C(=O)c1cccc(c1)S(=O)(=O)N2` [Compound I-224], the “D activity at 1 μM (%)” value was “+++ (+++ is >60%)”.

For the compound `Cc1cccc(C)c1-c1cc2nc(n1)NS(=O)(=O)c1cccc(c1)C(=O)N(Cc1cnc3c(n1)CN(C(C)C)C3=O)[C@@H](CCC1(C)CC1)CO2` (stereo in doubt) [III-19], the “D activity at 1 μM (%)” value was “+++ (+++ is >60%)”.

With `Cc1cccc(C)c1-c1cc2nc(n1)NS(=O)(=O)c1cccc(c1)C(=O)N(Cc1cnc3oc(C4CC4)cc3n1)[C@H](CC(C)C)CO2` [Compound I-156], the “D activity at 1 μM (%)” value is listed as “+++ (+++ is >60%)”.

Take `Cc1cccc(C)c1-c1cc2nc(n1)NS(=O)(=O)c1cccc(c1)C(=O)N(Cc1cnc3oc(C4CC4)cc3n1)[C@H](CC1(C)CCC1)CO2` [Compound I-116]: the “D activity at 1 μM (%)” value is “+++ (+++ is >60%)”.

`CCC(C)(C)C[C@H]1COc2cc(-c3c(C)cccc3C)nc(n2)NS(=O)(=O)c2cccc(c2)C(=O)N1Cc1cnc2oc(C(C)C)cc2n1` (stereo in doubt) [Compound I-39]: the “D activity at 1 μM (%)” value is “++ (++ is 30-60%)”.

As for `Cc1cccc(C)c1-c1nc2nc(c1C)OC[C@@H](COC(C)C)N(Cc1cnc3cc(C(C)C)n(C)c3n1)C(=O)c1cccc(c1)S(=O)(=O)N2` [Compound I-189], the “D activity at 1 μM (%)” value is “+++ (+++ is >60%)”.

In the case of `Cc1cccc(C)c1-c1cc2nc(n1)NS(=O)(=O)c1cccc(c1)C(=O)N(Cc1cnc3oc(C(C)C)c(C(F)(F)F)c3n1)[C@H](CCC1(C)CC1)CO2` (stereo in doubt) [Compound I-127], the “D activity at 1 μM (%)” value was “+++ (+++ is >60%)”.

Staying with this assay, now noted: with 44 nM potentiator and 18 μM Tezacaftor, 20% human serum.
With `Cc1cccc(C)c1-c1cc2nc(n1)NS(=O)(=O)c1cccc(c1)C(=O)N(Cc1cnc3oc(C(C)(C)C)cc3n1)[C@H](CC1CCCC1)CO2` [IV-8], the “D act. at 1 μM (%)” value is “+++ (+++ is >60%)”.

Consider `Cc1cccc(C)c1-c1cc2nc(n1)NS(=O)(=O)c1cccc(c1)C(=O)N(Cc1cnc3sc(C4CC4)cc3n1)[C@H](CC1(C)CC1)CO2` [IV-41], for which the “D act. at 1 μM (%)” value was “+++ (+++ is >60%)”.

As to `COCc1cc2nc(CN3C(=O)c4cccc(c4)S(=O)(=O)Nc4nc(cc(-c5c(C)cccc5C)n4)OC[C@H]3CC3(C)CC3)cnc2o1` [IV-16, (11R)-6-(2,6-dimethylphenyl)-12-[[6-(methoxymethyl)furo[2,3-b]pyrazin-2-yl]methyl]-11-[(1-methylcyclopropyl)methyl]-2,2-dioxo-9-oxa-2λ^6-thia-3,5,12,19-tetrazatricyclo[12.3.1.14,8]nonadeca-1(18),4(19),5,7,14,16-hexaen-13-one], the “D act. at 1 μM (%)” value is “+++ (+++ is >60%)”.

As for `Cc1cccc(C)c1-c1cc2nc(n1)NS(=O)(=O)c1cccc(c1)C(=O)N(Cc1cnc3oc(C(C)(C)C)cc3n1)[C@H](CC1CCC1)CO2` [IV-7], the “D act. at 1 μM (%)” value is recorded as “+++ (+++ is >60%)”.

Consider `Cc1cccc(C)c1-c1cc2nc(n1)NS(=O)(=O)c1cccc(c1)C(=O)N(Cc1cnc3oc(C(C)(C)C)cc3n1)[C@H](CC1CCCCC1)CO2` [IV-9], for which the “D act. at 1 μM (%)” value is “+++ (+++ is >60%)”.

The record behind these values is US20250340574A1, “MODULATORS OF CYSTIC FIBROSIS TRANSMEMBRANE CONDUCTANCE REGULATOR” (Vertex Pharmaceuticals Incorporated, priority 2022, published 2025).
